This test addresses T1, HDAC6 enzyme (Homo sapiens, UniProt Q9UBN7).
T1 construct: transducing full length HDAC6 gene into Sf-9 insect cells; GST; purchased SignalChem; host or cells: Sf-9 insect cells
T1 sequence (Q9UBN7 1-1215): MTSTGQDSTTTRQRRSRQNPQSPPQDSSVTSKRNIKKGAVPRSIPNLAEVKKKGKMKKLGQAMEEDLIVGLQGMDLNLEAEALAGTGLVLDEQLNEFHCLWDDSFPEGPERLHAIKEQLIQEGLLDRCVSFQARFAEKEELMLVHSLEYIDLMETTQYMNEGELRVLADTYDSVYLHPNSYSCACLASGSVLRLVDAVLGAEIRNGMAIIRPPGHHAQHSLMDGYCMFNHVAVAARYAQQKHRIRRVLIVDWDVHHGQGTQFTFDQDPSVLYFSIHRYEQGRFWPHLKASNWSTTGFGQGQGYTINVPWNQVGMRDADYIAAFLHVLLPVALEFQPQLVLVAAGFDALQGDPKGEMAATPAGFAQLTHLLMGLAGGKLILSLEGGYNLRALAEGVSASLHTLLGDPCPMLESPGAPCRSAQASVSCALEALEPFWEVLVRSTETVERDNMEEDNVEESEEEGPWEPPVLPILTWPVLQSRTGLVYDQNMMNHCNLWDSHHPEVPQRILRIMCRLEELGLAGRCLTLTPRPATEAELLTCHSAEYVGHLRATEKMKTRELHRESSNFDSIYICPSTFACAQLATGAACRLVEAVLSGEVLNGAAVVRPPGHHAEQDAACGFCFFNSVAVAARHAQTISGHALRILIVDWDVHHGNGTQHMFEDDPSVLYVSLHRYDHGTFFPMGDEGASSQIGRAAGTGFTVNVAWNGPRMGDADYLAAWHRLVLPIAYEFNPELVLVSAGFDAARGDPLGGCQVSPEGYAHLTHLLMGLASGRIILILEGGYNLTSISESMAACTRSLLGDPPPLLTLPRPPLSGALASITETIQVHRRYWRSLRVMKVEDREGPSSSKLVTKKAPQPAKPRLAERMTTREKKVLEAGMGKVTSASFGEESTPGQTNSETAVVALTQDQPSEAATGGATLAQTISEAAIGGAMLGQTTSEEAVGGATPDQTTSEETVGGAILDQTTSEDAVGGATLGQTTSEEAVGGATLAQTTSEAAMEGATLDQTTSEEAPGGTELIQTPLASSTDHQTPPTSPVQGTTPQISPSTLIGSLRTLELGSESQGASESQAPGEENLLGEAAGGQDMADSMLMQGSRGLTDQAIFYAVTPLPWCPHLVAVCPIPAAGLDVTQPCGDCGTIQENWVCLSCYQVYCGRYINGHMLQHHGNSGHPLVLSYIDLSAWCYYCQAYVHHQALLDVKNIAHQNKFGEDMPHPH
As to the kind of experiment: HDAC6 enzyme inhibitory activity (HDAC-Glo I/II Assay kit). It is filed as biochemical. Particulars: 10 μM; wells without enzyme = 100% inhibition; read-out: HDAC6 inhibitory rate (%) (10 μM). In short, it runs like this:
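Full-length human HDAC6 (GST-purified, Sf-9 expressed) preincubated with compound 60 min at room temperature in Tris-HCl pH 7.5 buffer with MgCl2, KCl, NaCl, glutathione, Tween-20. HDAC-Glo I/II substrate-developer then added, 20 min room temperature, luminescence read. Inhibition relative to no-enzyme wells as 100%.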
Consider `O=C1c2cc(-c3nnc(C(F)F)o3)ccc2CN1C1(C(=O)NCC(F)(F)F)CC1` [Example 187, 1-(6-(5-(difluoromethyl)-1,3,4-oxadiazol-2-yl)-1-oxo-1,3-dihydro-2H-isoindol-2-yl)-N-(2,2,2-trifluoroethyl)cyclopropanecarboxamide], for which the inhibition at 10 µM is 92%.

As to `Cn1cc(-c2ccccc2)c(N2Cc3ccc(-c4nnc(C(F)F)o4)cc3C2=O)n1` [Example 188, 6-(5-(difluoromethyl)-1,3,4-oxadiazol-2-yl)-2-(1-methyl-4-phenyl-1H-pyrazol-3-yl)isoindolin-1-one], the inhibition at 10 µM amounted to 98%. Turning to `O=C(N[C@@H]1COCC[C@H]1N1Cc2c(F)cc(-c3nnc(C(F)F)o3)cc2C1=O)c1ccccc1Cl` [Example 189, 2-chloro-N-((3S,4R)-4-(6-(5-(difluoromethyl)-1,3,4-oxadiazol-2-yl)-4-fluoro-1-oxo-1,3-dihydro-2H-isoindol-2-yl)tetrahydro-2H-pyran-3-yl)benzamide], the inhibition at 10 µM was determined as 100%. Then `O=C(N[C@@H]1COCC[C@H]1N1Cc2c(F)cc(-c3nnc(C(F)F)o3)cc2C1=O)c1cccc(Cl)c1` [Example 190, 3-chloro-N-((3S,4R)-4-(6-(5-(difluoromethyl)-1,3,4-oxadiazol-2-yl)-4-fluoro-1-oxo-1,3-dihydro-2H-isoindol-2-yl)tetrahydro-2H-pyran-3-yl)benzamide], with 100%; and `CCC(=O)N[C@@H]1COCC[C@H]1N1Cc2c(F)cc(-c3nnc(C(F)F)o3)cc2C1=O` [Example 191, N-((3S,4R)-4-(6-(5-(difluoromethyl)-1,3,4-oxadiazol-2-yl)-4-fluoro-1-oxo-1,3-dihydro-2H-isoindol-2-yl)tetrahydro-2H-pyran-3-yl)propanamide], with 101%; and `CC(C)(C)OC(=O)N1CC[C@@H](N2Cc3ncc(-c4nnc(C(F)F)o4)cc3C2=O)[C@@H](c2ccccc2)C1` [Example 192, tert-butyl (3S,4R)-4-(3-(5-(difluoromethyl)-1,3,4-oxadiazol-2-yl)-5-oxo-5,7-dihydro-6H-pyrrolo[3,4-b]pyridin-6-yl)-3-phenylpiperidine-1-carboxylate], with 100%. Then `O=C1c2cc(-c3nnc(C(F)F)o3)cnc2CN1[C@@H]1CCNC[C@@H]1c1ccccc1` [Example 193, 3-(5-(difluoromethyl)-1,3,4-oxadiazol-2-yl)-6-((3S,4R)-3-phenylpiperidin-4-yl)-6,7-dihydro-5H-pyrrolo[3,4-b]pyridin-5-one], with 102%; and `COC(=O)N1CC[C@@H](N2Cc3ncc(-c4nnc(C(F)F)o4)cc3C2=O)[C@@H](c2ccccc2)C1` [Example 194, methyl (3S,4R)-4-(3-(5-(difluoromethyl)-1,3,4-oxadiazol-2-yl)-5-oxo-5,7-dihydro-6H-pyrrolo[3,4-b]pyridin-6-yl)-3-phenylpiperidine-carboxylate], with 100%; and `CCC(F)(F)C(=O)N[C@@H]1CCCC[C@H]1N1Cc2ncc(-c3nnc(C(F)F)o3)cc2C1=O` [Example 195, N-((1R,2R)-2-(3-(5-(difluoromethyl)-1,3,4-oxadiazol-2-yl)-5-oxo-5,7-dihydro-6H-pyrrolo[3,4-b]pyridin-6-yl)cyclohexyl)-2,2-difluorobutanamide], with 100%. Under `O=C1c2cc(-c3nnc(C(F)F)o3)cnc2CN1[C@@H]1CCCC[C@H]1NC(=O)C(F)(F)C(F)(F)F` [Example 196, N-((1R,2R)-2-(3-(5-(difluoromethyl)-1,3,4-oxadiazol-2-yl)-5-oxo-5,7-dihydro-6H-pyrrolo[3,4-b]pyridin-6-yl)cyclohexyl)-2,2,3,3,3-pentafluoropropanamide] stands 100%; under `O=C1c2cc(-c3nnc(C(F)F)o3)cc(F)c2CN1C[C@H]1COCCN1S(=O)(=O)C1CC1` [Example 197, 2-(((3S)-4-(cyclopropylsulfonyl)morpholin-3-yl)methyl)-6-(5-(difluoromethyl)-1,3,4-oxadiazol-2-yl)-4-fluoroisoindolin-1-one], 100%; under `Cc1ccc(S(=O)(=O)N2CCOC[C@@H]2CN2Cc3c(F)cc(-c4nnc(C(F)F)o4)cc3C2=O)cc1` [Example 198, 6-(5-(difluoromethyl)-1,3,4-oxadiazol-2-yl)-4-fluoro-2-(((3S)-4-((4-methylphenyl)sulfonyl)morpholin-3-yl)methyl)isoindolin-1-one], 99%. Turning to `O=C1c2cc(-c3nnc(C(F)F)o3)cc(F)c2CN1C[C@H]1COCCN1S(=O)(=O)CC(F)(F)F` [Example 199, 6-(5-(difluoromethyl)-1,3,4-oxadiazol-2-yl)-4-fluoro-2-(((3S)-4-((2,2,2-trifluoroethyl)sulfonyl)morpholin-3-yl)methyl)isoindolin-1-one], the inhibition at 10 µM came out at 100%. Under `O=C1c2cc(-c3nnc(C(F)F)o3)cc(F)c2CN1[C@@H]1CCOC[C@H]1NC(=O)C(F)(F)C(F)(F)F` [Example 200, N-((3S,4R)-4-(6-(5-(difluoromethyl)-1,3,4-oxadiazol-2-yl)-4-fluoro-1-oxo-1,3-dihydro-2H-isoindol-2-yl)tetrahydro-2H-pyran-3-yl)-2,2,3,3,3-pentafluoropropanamide] stands 100%; under `O=C1c2cc(-c3nnc(C(F)F)o3)cc(F)c2CN1[C@@H]1CCOC[C@H]1NC(=O)C1(C(F)(F)F)CC1` [Example 201, N-((3S,4R)-4-(6-(5-(difluoromethyl)-1,3,4-oxadiazol-2-yl)-4-fluoro-1-oxo-1,3-dihydro-2H-isoindol-2-yl)tetrahydro-2H-pyran-3-yl)-1-(trifluoromethyl)cyclopropanecarboxamide], 101%. Turning to `CC(C)(C(=O)N[C@@H]1COCC[C@H]1N1Cc2c(F)cc(-c3nnc(C(F)F)o3)cc2C1=O)C(F)(F)F` [Example 202, N-((3S,4R)-4-(6-(5-(difluoromethyl)-1,3,4-oxadiazol-2-yl)-4-fluoro-1-oxo-1,3-dihydro-2H-isoindol-2-yl)tetrahydro-2H-pyran-3-yl)-3,3,3-trifluoro-2,2-dimethylpropanamide], the inhibition at 10 µM was determined as 101%.

In the case of `CCC(F)(F)C(=O)N[C@@H]1COCC[C@H]1N1Cc2c(F)cc(-c3nnc(C(F)F)o3)cc2C1=O` [Example 203, N-((3S,4R)-4-(6-(5-(difluoromethyl)-1,3,4-oxadiazol-2-yl)-4-fluoro-1-oxo-1,3-dihydro-2H-isoindol-2-yl)tetrahydro-2H-pyran-3-yl)-2,2-difluorobutanamide], the inhibition at 10 µM came out at 100%. Turning to `CCC(F)(F)C(=O)N[C@@H]1CCOC[C@H]1N1Cc2c(F)cc(-c3nnc(C(F)F)o3)cc2C1=O` [Example 204], the inhibition at 10 µM stood at 100%. Under `O=C1c2cc(-c3nnc(C(F)F)o3)cc(F)c2CN1[C@@H]1COCC[C@H]1NC(=O)C1(C(F)(F)F)CCC1` [Example 205, N-((3S,4R)-3-(6-(5-(difluoromethyl)-1,3,4-oxadiazol-2-yl)-4-fluoro-1-oxo-1,3-dihydro-2H-isoindol-2-yl)tetrahydro-2H-pyran-4-yl)-1-(trifluoromethyl)cyclobutanecarboxamide] stands 101%. Then `Cn1ccc(-c2ccccc2N2Cc3ccc(-c4nnc(C(F)F)o4)cc3C2=O)n1` [Example 206, 6-(5-(difluoromethyl)-1,3,4-oxadiazol-2-yl)-2-(2-(1-methyl-1H-pyrazol-3-yl)phenyl)isoindolin-1-one], with 100%.

For `Cn1cc(-c2ccccc2N2Cc3ccc(-c4nnc(C(F)F)o4)cc3C2=O)cn1` [Example 207, 6-(5-(difluoromethyl)-1,3,4-oxadiazol-2-yl)-2-(2-(1-methyl-1H-pyrazol-4-yl)phenyl)isoindolin-1-one], the inhibition at 10 µM is 100%. For the compound `O=C1c2cc(-c3nnc(C(F)F)o3)ccc2CN1c1ccccc1-c1cccnc1` [Example 208, 6-(5-(difluoromethyl)-1,3,4-oxadiazol-2-yl)-2-(2-(pyridin-3-yl)phenyl)isoindolin-1-one], the inhibition at 10 µM amounted to 100%.

Source of the values: patent US10435399B2, “HDAC6 inhibitory heterocyclic compound” (TAKEDA PHARMACEUTICAL COMPANY LIMITED, priority 2017, dated 2019).
